Measured values from ChEMBL document CHEMBL1201862, “PubChem BioAssay data set” (2004).
Activity calls are given as the source filed them. Rule as the data show it: actives have a measured IC50 and inactives only a lower limit.

Biological target: T1, Sentrin-specific protease 8 (Homo sapiens, UniProt Q96LD8)
T1 sequence (Q96LD8 whole entry): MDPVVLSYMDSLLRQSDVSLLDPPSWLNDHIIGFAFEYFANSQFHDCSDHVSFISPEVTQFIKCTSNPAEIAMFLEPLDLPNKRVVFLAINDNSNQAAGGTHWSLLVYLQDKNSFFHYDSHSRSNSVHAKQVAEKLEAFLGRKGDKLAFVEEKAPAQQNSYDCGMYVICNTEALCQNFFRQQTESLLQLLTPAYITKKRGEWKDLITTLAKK
Assay: SENP8 protease inhibitors, SAR follow-up, biochemical, luminescence (AID 504501)
Assay type: functional

O=C(Nc1ccc(C#Cc2ccccc2)cc1)C1CC1
IC50: > 99 µM (inactive)
